Data as given in US20170184604A1, “DD1ALPHA RECEPTOR AND USES THEREOF IN IMMUNE DISORDERS” (THE GENERAL HOSPITAL CORPORATION, priority 2014, published 2017).

How the values were obtained:
PD-L1 = assay: Ig fusion protein staining of 293T transfectants (flow cytometry); type: binding, human; conditions: cell surface staining
[1] = system: wt- or DD1α−/− mouse CD4+ T cells; assay: Ig fusion protein binding to CD4+ T cells from Wt and DD1α−/− mice
Description: FIGS. 6A-6E show physical association of DD1α with PD1 but not with PD-L1. (FIG. 6A) Interaction of DD1α with PD1 or DD1α. […] The bound Ig fusion proteins were detected with anti-Ig-APC. Empty vector (pcDNA3.1)-transfected cells stained with Ig proteins are shown as a negative control (gray filled) and other staining is shown as black open. (FIG. 6B) DD1α binds to both DD1α and PD1 on CD4+ T cells. Purified CD4+ T cells from Wt and DD1α−/− mice were assayed for binding to Ig fused DD1α or PD1 proteins. Cells were incubated with DD1α-Ig (open), PD1-Ig (open), or control Ig proteins (gray filled) and the bound Ig fusion proteins were detected by anti-Ig-APC. […] The bound Ig fusion proteins were detected by anti-Ig-APC. Binding amounts were determined by percentage of APC positive cells compared to control Ig protein-bound cells. (FIG. 6C) Ig-pulldown experiments show DD1α interaction with both DD1α and PD1. […] The bead bound proteins were eluted and determined by western blot analysis using anti-HA antibody (asterisks). […] The bead bound proteins were eluted and detected by western blot analysis with anti-DD1α or anti-PD1 antibody (asterisk). […] The levels of indicated proteins were analyzed by western blot analysis. Total RNAs from control siRNA or p53 siRNA transfected MCF7 cells were assessed for mRNA levels of PD1 or PD-L1 by real-time quantitative PCR. […]

DD1α = assay: Homophilic interaction assay (Ig protein-coated beads on transfected 293T cells); type: binding, human
Description: (FIG. 3A) Defective apoptotic cell engulfment of DD1α−/− m-BMDMs. Engulfments of Wt and DD1α−/− apoptotic thymocytes by Wt and DD1α−/− BMDMs were assessed by flow cytometry as described previously. The pHrodo-labeled apoptotic thymocytes were incubated with m-BMDMs for 30 min and the phagocytosis was determined by measuring the positive pHrodo-containing macrophages. Graph represents mean±SD from three independent experiments. (FIG. 3B) Homophilic DD1α interaction. […] The binding was examined under an inverted microscope (left panels) and also determined from the optical density (O.D.) at 492 nm (shown at the right). […] Binding was determined by counting the bound cells per 100 μm^2 and normalized by cell number bound to untreated plate. […] The bead bound His-DD1α (33-194) proteins were eluted and detected by immunoblotting using anti-His antibody. […] DD1α-transfected cells were treated or untreated with 1 mM bis(maleinido)hexane (BMH) for 1 hour, and DD1α protein was analyzed by western blotting under non-reducing condition. […] The phagocytosis of MCF7/DD1α KD cells expressing empty vector (EV), DD1α or DD1α-ΔIgV was determined as in FIG. 2A. […]

- binding to PD-L1 transfectants (PD-L1): not to PD-L1 or TIM-3 transfectants
Substance: DD1α-Ig: the extracellular region of DD1α fused with the immunoglobulin G Fc segment
- binding to the surface of DD1α−/− CD4+ T cells compared with wt-CD4+ T cells [1]: significantly lower
- binding to IgV domain-deleted mutant DD1α on the cell surface (DD1α; 293 cells transfected with mutant-DD1α (IgV domain-deletion)): abolished this interaction
- binding to complete DD1α proteins expressed on the cell surface (DD1α; 293 cells transfected with wt-DD1α): bound
